Columns and labels:
Assay in all cases: relative viability (nuclei count vs DMSO), 5 days (fraction); higher = more cells survive
[1] = compound: Cc1ccc2nc(NCCN)c3ncc(C)n3c2c1 + Nc1nc2[nH]cc(CCc3ccc(C(=O)N[C@@H](CCC(=O)O)C(=O)O)cc3)c2c(=O)[nH]1 [Pemetrexed] (partner 0.2 µM)
Summary of the method: (§1)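 Nuclei were stained with Hoechst during a one-step fixation (final 0.05% Triton X-100, 1% formaldehyde, 1 ug/ml Hoechst) carried out 5 days after dosing, then counted on 4× images. The cells, lung cancer lines in 1536-well plates, had been dosed by pin tool the day after seeding with one drug alone or a fixed anchor-drug dose plus five library-drug doses (not always all listed) in √10 steps. Relative viability is the nuclei count in treated wells divided by that in vehicle wells, and each value is the median of duplicate plates.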

[2] = compound: Cc1ccc2nc(NCCN)c3ncc(C)n3c2c1 + O=C(c1cc(Cc2n[nH]c(=O)c3ccccc23)ccc1F)N1CCN(C(=O)C2CC2)CC1 [Olaparib] (partner 8 µM)
Summary of the method: as §1

Salubrinal + Pictilisib = compound: O=C(/C=C/c1ccccc1)NC(NC(=S)Nc1cccc2cccnc12)C(Cl)(Cl)Cl [Salubrinal] + CS(=O)(=O)N1CCN(Cc2cc3nc(-c4cccc5[nH]ncc45)nc(N4CCOCC4)c3s2)CC1 [Pictilisib] (partner 1 µM)
Summary of the method: as §1

Salubrinal + Vorinostat = compound: O=C(/C=C/c1ccccc1)NC(NC(=S)Nc1cccc2cccnc12)C(Cl)(Cl)Cl [Salubrinal] + O=C(CCCCCCC(=O)Nc1ccccc1)NO [Vorinostat] (partner 1 µM)
Summary of the method: as §1

Row | Cell Line | relative viability ([1]; first compound 0.04 µM) | relative viability ([1]; first compound 0.1265 µM) | relative viability ([1]; first compound 0.4 µM) | relative viability ([1]; first compound 1.265 µM) | relative viability ([1]; first compound 4 µM) | relative viability ([2]; first compound 0.04 µM) | relative viability ([2]; first compound 0.1265 µM) | relative viability ([2]; first compound 0.4 µM) | relative viability ([2]; first compound 1.265 µM) | relative viability ([2]; first compound 4 µM) | relative viability (Salubrinal + Pictilisib; first compound 0.08 µM) | relative viability (Salubrinal + Pictilisib; first compound 0.253 µM) | relative viability (Salubrinal + Pictilisib; first compound 0.8 µM) | relative viability (Salubrinal + Pictilisib; first compound 2.53 µM) | relative viability (Salubrinal + Pictilisib; first compound 8 µM) | relative viability (Salubrinal + Vorinostat; first compound 0.08 µM) | relative viability (Salubrinal + Vorinostat; first compound 0.253 µM) | relative viability (Salubrinal + Vorinostat; first compound 0.8 µM) | relative viability (Salubrinal + Vorinostat; first compound 2.53 µM) | relative viability (Salubrinal + Vorinostat; first compound 8 µM)
1 | NCI-H2347 | 0.447 | 0.479 | 0.454 | 0.412 | 0.424 | 0.601 | 0.566 | 0.485 | 0.525 | 0.501 | 0.805 | 0.517 | 0.905 | 0.678 | 0.434 | 0.558 | 0.514 | 0.608 | 0.686 | 0.639
2 | NCI-H2405 | 1.17 | 1.01 | 1 | 0.905 | 0.798 | 0.91 | 0.795 | 0.927 | 0.825 | 0.779 | 0.338 | 0.442 | 0.458 | 0.406 | 0.431 | 0.998 | 1.06 | 1.22 | 1.04 | 0.99
3 | NCI-H3122 | 0.199 | 0.192 | 0.192 | 0.218 | 0.2 | 0.653 | 0.67 | 0.507 | 0.582 | 0.579 | 0.565 | 0.633 | 0.657 | 0.694 | 0.663 | 1.16 | 1 | 0.989 | 1.05 | 1.09
4 | PC-3 [JPC-3] | 1.21 | 1.03 | 1.1 | 0.987 | 1.09 | 1.23 | 1.09 | 1.13 | 1.11 | 1.02 | 0.796 | 0.666 | 0.714 | 0.727 | 0.702 | 0.713 | 0.71 | 1.07 | 0.934 | 0.762
5 | PC-14 | 0.135 | 0.14 | 0.157 | 0.15 | 0.151 | 0.278 | 0.324 | 0.241 | 0.261 | 0.127 | 0.792 | 0.597 | 0.668 | 0.702 | 0.626 | 0.719 | 0.585 | 0.672 | 0.645 | 0.5
6 | RERF-LC-KJ | 0.489 | 0.474 | 0.435 | 0.485 | 0.518 | 0.995 | 0.919 | 1.06 | 0.801 | 0.579 | 0.664 | 0.622 | 0.549 | 0.608 | 0.52 | 0.784 | 0.642 | 0.745 | 0.673 | 0.721
7 | SK-LU-1 | 0.979 | 0.903 | 0.955 | 0.984 | 0.981 | 0.515 | 0.422 | 0.513 | 0.455 | 0.484 | 0.678 | 0.588 | 0.698 | 0.647 | 0.519 | 0.754 | 0.668 | 0.996 | 0.779 | 0.664
8 | SK-MES-1 | 1.04 | 0.903 | 0.9 | 1.05 | 0.92 | 0.716 | 0.736 | 0.745 | 0.669 | 0.468 | 0.435 | 0.339 | 0.356 | 0.305 | 0.335 | 1.35 | 1 | 1.28 | 1.1 | 0.936
9 | SW 1573 | 1.01 | 0.828 | 0.912 | 0.992 | 0.611 | 0.519 | 0.404 | 0.504 | 0.42 | 0.177 | 0.539 | 0.406 | 0.537 | 0.465 | 0.471 | 0.852 | 0.686 | 0.778 | 0.55 | 0.62

— the supplement of paper PMC10307832
